Assay results published in patent publication US20040137426A1, “Gp41 peptides and methods based thereon for inhibiting HIV fusion to target cells” (priority 2002, published 2004).
In brackets after ≈: the same amount, converted by molar mass.

Assays:
HIV-1 pseudovirus = assay: Timing of peptide addition and inhibition of pseudovirus infection; assay type: cell-based
[1] = system: HXB2 (X4 TCLA virus) pseudovirus; assay: Viral entry, Env pseudovirus with luciferase readout: HXB2; assay type: cell-based, HIV-1; details: from IC50 data of table 3
Experimental: (§1) In preliminary experiments we tested the panel of peptides for inhibition of HIV-1 infectivity using a single CXCR4-using T cell line-adapted virus isolate: HIV-1IIIB. Serial dilutions of the peptides were added to the target cells immediately followed by virus. After 5-7 days culture, supernatant was tested for viral p24 activity using a sensitive p24 ELISA. […] These viruses carry a luciferase readout and are competent for a single cycle of replication only. We chose to test Env from […] viruses representing: X4 TCLA virus (HXB2); X4 primary isolate (WHO D clade); R5X4 dual tropic primary isolate (W61D) and R5 primary isolates (JRFL and Bal).

JRFL (R5) pseudovirus = assay: Viral entry, Env pseudovirus with luciferase readout: JRFL; assay type: cell-based, HIV-1; details: from IC50 data of table 3
Experimental: as §1

[2] = system: W61D (R5X4 dual tropic primary isolate) pseudovirus; assay: Viral entry, Env pseudovirus with luciferase readout: W61D; assay type: cell-based, HIV-1; details: for N36E on CCR5+ indicator cells
Experimental: as §1

HIV-1 [3] = details: for activity compared with the new analogues of T-20, T-21 and DP219: qualitative comparison
Experimental: Peptides were tested in vitro for inhibition of early steps in cell-free HIV-1 infection and direct cell-to-cell spread of virus using T-cell line-adapted and primary isolates and recombinant HIV-1 viruses pseudotyped for env using CCR5, CXCR4 or both coreceptors.
Selected de novo designed peptides according to the invention (S291, N36E, W37Q and W371) and the new analogues of T20, T21 and DP219 were evaluated for inhibition of both cell-free HIV-1 infection and of direct cell-to-cell spread using a range of T-cell line-adapted and primary isolates and recombinant HIV-1 pseudotyped for env derived from patient isolates of different clades.

HIV-1 [4] = details: for activity compared with T20 and T1249: across clades, Figs 5 and 6; for IC50: read-out: IC50 in hPBMCs, independent assays in hPBMCs (N36E 6, W37Q 5)
Experimental: The peptides were evaluated against two HIV-1 stains IIIB and BR92/92/021. These two stains were selected in part based on their co-receptor utilization preferences; HIV-1 IIIB utilizes the CXCR4 co-receptor whereas HIV-1 BR92 utilizes CCR5. To test anti-HIV efficacy, fresh Human Peripheral Blood Mononuclear Cells (PBMCs) were obtained from single, normal hepatitis and HIV-1 negative donors. The cells were stimulated by a using CD3+method. Drug testing was performed in a 96 well format in triplicate. Each plate contained control wells (cells+virus), experimental wells (drug+cells+virus) and compound control wells (drug+cells, to monitor cytotoxicity). The read-out for viral infectivity after seven days of infection was based on reverse transcriptase activity of cell free supernatant samples. Drug toxicity was determined in the control well by a standard assay using the tetrazolium compound, which was converted in live cells into a colored formazan product that can readily be monitored on the microtiter plate.
PBMCs were stimulated via the CD3 antigen that is part of the T cell receptor. […] The T cell preparation contains about 50% CD4+cells that are susceptible to HIV-1 infection. Therefore no further separation between CD4+ and CD8+cells is necessary.
The data were obtained according to the following protocol:
Pre-incubate diluted peptides (0 to 50 ug/ml) with virus strain
Add 3 day anti-CD3 stimulated human peripheral blood mononuclear cells (50,000/well)
Incubate 37° C. for 6 days in IL-2 containing media
Test cell-free culture supernatants for reverse transcriptase (RT) activity at day 6
Test cells in cultures for toxicity using an MTS (CellTiter96 Reagent Promega) staining for cell viability
All assay results shown were done in triplicate

HIV-1 IIIB = assay type: cell-based; details: lab-adapted HIV-1 IIIB
Experimental: Both involved the culture of the virus with the peptide or its scrambled form for 1 hr at 37° C., 5% CO2 and then subsequent addition of target cells for 7 days. Inhibition was assessed using an enzyme-linked immunosorbent assay (ELISA) of viral core protein p24 antigen.

[5] = system: WHO isolate Clade D (X4) pseudovirus; assay: Viral entry, Env pseudovirus with luciferase readout: WHO isolate Clade D; assay type: cell-based, HIV-1; details: from IC50 data of table 3
Experimental: as §1

[6] = biological target: HIV-1 IIIB gp41 (HIV-1 IIIB); assay: cell-based or functional assay
[7] = system: HL2/3 cells expressing HIV-1IIIB Env fusing with MAGI-CCR5 cells; assay type: cell-based; details: MAGI-CCR5 / HL2/3; read-out: IC50 cell fusion assay
Experimental: A second panel of anti-HIV-1 peptides according to the invention was evaluated for using the MAGI-CCR5 antiviral assay and a gene reporter cell fusion assay. MAGI-CCR5 is an HIV-1 indicator cell line derived from HeLa cells that express CD4 and the HIV-1 coreceptors CCR5 and CXCR4. These cells contain a gene reporter cassette of β-galactosidase that is expressed from an HIV-1 LTR. Expression of the reporter gene is dependent on the production of HIV-1 tat that occurs following HIV-1 entry. The read-out for viral infectivity after two days of incubation is measurement of β-galactosidase expression detectable by chemoluminescence. The assay structure in the 96 well format as that used in the PBMC assay. The cell fusion assay uses the same indicator cell line (MAGI-CCR5), which is incubated with a HeLa cell based cell line HL2/3 that expresses HIV-1IIIB Env on its surface and contains Tat and Rev expression cassettes. When HL2/3 cells fuse with the MAGI-CCR5 cells, HIV-1 Tat is delivered into the indicator cells leading to activation of the β-galactosidase gene which is under the control of the HIV-1 LTR. The enzyme activity is read out in a similar fashion by chemoluminescence using the same assay structure as mentioned above. This assay is uniquely sensitive to entry inhibitors. […]

CC[C@H](C)[C@H](NC(=O)[C@H](CC(C)C)NC(=O)[C@H](CO)NC(=O)[C@H](Cc1ccc(O)cc1)NC(=O)[C@@H](NC(=O)[C@H](CC(C)C)NC(=O)[C@H](CO)NC(=O)[C@@H](NC(=O)[C@H](Cc1ccc(O)cc1)NC(=O)[C@H](CC(N)=O)NC(=O)[C@H](CC(=O)O)NC(=O)[C@@H](NC(=O)[C@H](CCC(=O)O)NC(=O)[C@H](CCCNC(=N)N)NC(=O)[C@H](CCC(=O)O)NC(=O)[C@H](Cc1c[nH]c2ccccc12)NC(=O)[C@H](CCC(=O)O)NC(=O)[C@H](CCSC)NC(=O)[C@H](Cc1c[nH]c2ccccc12)NC(=O)[C@@H](NC(=O)[C@H](CCSC)NC(=O)[C@H](CC(N)=O)NC(=O)[C@@H](N)CC(N)=O)[C@@H](C)O)[C@@H](C)CC)[C@@H](C)O)[C@@H](C)CC)C(=O)N[C@@H](CCC(=O)O)C(=O)N[C@@H](CCC(=O)O)C(=O)N[C@@H](CO)C(=O)N[C@@H](CCC(N)=O)C(=O)N[C@@H](CC(N)=O)C(=O)N[C@@H](CCC(N)=O)C(=O)N[C@@H](CCC(N)=O)C(=O)N[C@@H](CCC(=O)O)C(=O)N[C@@H](CCCCN)C(=O)N[C@@H](CC(N)=O)C(=O)N[C@@H](CCC(=O)O)C(=O)N[C@@H](CCC(N)=O)C(=O)N[C@@H](CCC(=O)O)C(=O)O [Peptide N36E]
inhibition, peptide preincubated with target cells then washed prior to addition of virus (HIV-1 pseudovirus; cells washed before virus): no inhibitory effect | inhibition, virus preincubated with cells for 1 h prior to addition of peptide (HIV-1 pseudovirus; peptide added 1 h after virus and cells): complete absence of inhibition | inhibitory effect, simultaneous mixing of virus, cells and peptide (HIV-1 pseudovirus; simultaneous addition): most pronounced inhibitory effect | inhibition, virus preincubated with peptide 1 h at 37° C. then washed by ultrafiltration prior to addition to cells (HIV-1 pseudovirus; virus washed before cells): weak but poorly reproducible inhibition | fold more active than Y36F, HXB2 pseudovirus [1]: 5 fold | fold more active than Y36F, JRFL pseudovirus (JRFL (R5) pseudovirus): 80 fold | fold more active than Y36F, W61D pseudovirus [2]: 18 fold | fold more potent than analogues Y36F, K42K and E30E, frequently (HIV-1 [3]): 10 fold | activity compared with the new analogues of T-20, T-21 and DP219 (HIV-1 [3]): significantly greater potency | activity compared with T20 and T1249 (HIV-1 [4]): compare well to both T20 and to T1249 | IC50 (HIV-1 [4]): 2 ± 1 nM

CC[C@H](C)[C@H](NC(=O)[C@H](CCC(=O)O)NC(=O)[C@H](CCCNC(=N)N)NC(=O)[C@H](CCC(=O)O)NC(=O)[C@H](Cc1c[nH]c2ccccc12)NC(=O)[C@H](CCC(=O)O)NC(=O)[C@H](CCSC)NC(=O)[C@H](Cc1c[nH]c2ccccc12)NC(=O)[C@@H](NC(=O)[C@H](CCSC)NC(=O)[C@H](CC(N)=O)NC(=O)[C@H](CC(N)=O)NC(=O)[C@@H](N)Cc1c[nH]c2ccccc12)[C@@H](C)O)C(=O)N[C@@H](CC(=O)O)C(=O)N[C@@H](CC(N)=O)C(=O)N[C@@H](Cc1ccc(O)cc1)C(=O)N[C@H](C(=O)N[C@@H](CO)C(=O)N[C@@H](CC(C)C)C(=O)O)[C@@H](C)O [Peptide W19L]
MIC HIV-1IIIB infectivity (HIV-1 IIIB): 0.06 µg/mL (≈ 0.0238 µM)

CC[C@H](C)[C@H](NC(=O)[C@H](CC(C)C)NC(=O)[C@H](CO)NC(=O)[C@H](Cc1ccc(O)cc1)NC(=O)[C@@H](NC(=O)[C@H](CC(C)C)NC(=O)[C@H](CO)NC(=O)[C@@H](NC(=O)[C@H](Cc1ccc(O)cc1)NC(=O)[C@H](CC(N)=O)NC(=O)[C@H](CC(=O)O)NC(=O)[C@@H](NC(=O)[C@H](CCC(=O)O)NC(=O)[C@H](CCCNC(=N)N)NC(=O)[C@H](CCC(=O)O)NC(=O)[C@H](Cc1c[nH]c2ccccc12)NC(=O)[C@H](CCC(=O)O)NC(=O)[C@H](CCSC)NC(=O)[C@H](Cc1c[nH]c2ccccc12)NC(=O)[C@@H](NC(=O)[C@H](CCSC)NC(=O)[C@H](CC(N)=O)NC(=O)[C@H](CC(N)=O)NC(=O)[C@H](Cc1c[nH]c2ccccc12)NC(=O)[C@@H](NC(=O)[C@H](CCC(N)=O)NC(=O)[C@H](CCC(=O)O)NC(=O)[C@H](CC(C)C)NC(=O)[C@H](CO)NC(=O)[C@H](CCCCN)NC(=O)[C@H](CC(N)=O)NC(=O)[C@H](CO)NC(=O)[C@@H](N)Cc1c[nH]c2ccccc12)[C@@H](C)CC)[C@@H](C)O)[C@@H](C)CC)[C@@H](C)O)[C@@H](C)CC)C(=O)N[C@@H](CCC(=O)O)C(=O)N[C@@H](CCC(=O)O)C(=O)N[C@@H](CO)C(=O)N[C@@H](CCC(N)=O)C(=O)O [Peptide W37Q]
fold more active than Y36F, JRFL pseudovirus (JRFL (R5) pseudovirus): ~15 fold | fold more active than Y36F, W61D pseudovirus [2]: ~20 fold | fold more potent than analogues Y36F, K42K and E30E, frequently (HIV-1 [3]): 10 fold | activity compared with the new analogues of T-20, T-21 and DP219 (HIV-1 [3]): significantly greater potency | activity compared with T20 and T1249 (HIV-1 [4]): compare well to both T20 and to T1249 | IC50 (HIV-1 [4]): 5 ± 2 nM | fold more active than Y36F, WHO D clade pseudovirus [5]: approximately 22 fold

CC[C@H](C)[C@H](NC(=O)[C@H](CC(C)C)NC(=O)[C@H](CO)NC(=O)[C@H](Cc1ccc(O)cc1)NC(=O)[C@@H](NC(=O)[C@H](CC(C)C)NC(=O)[C@H](CO)NC(=O)[C@@H](NC(=O)[C@H](Cc1ccc(O)cc1)NC(=O)[C@H](CC(N)=O)NC(=O)[C@H](CC(=O)O)NC(=O)[C@@H](NC(=O)[C@H](CCC(=O)O)NC(=O)[C@H](CCCNC(=N)N)NC(=O)[C@H](CCC(=O)O)NC(=O)[C@H](Cc1c[nH]c2ccccc12)NC(=O)[C@@H](N)CCC(=O)O)[C@@H](C)CC)[C@@H](C)O)[C@@H](C)CC)C(=O)N[C@@H](CCC(=O)O)C(=O)N[C@@H](CCC(=O)O)C(=O)N[C@@H](CO)C(=O)N[C@@H](CCC(N)=O)C(=O)N[C@@H](CC(N)=O)C(=O)N[C@@H](CCC(N)=O)C(=O)N[C@@H](CCC(N)=O)C(=O)N[C@@H](CCC(=O)O)C(=O)N[C@@H](CCCCN)C(=O)N[C@@H](CC(N)=O)C(=O)N[C@@H](CCC(=O)O)C(=O)N[C@@H](CCC(N)=O)C(=O)N[C@@H](CCC(=O)O)C(=O)O [Synthesised DP219, reference compound]
ID50% HIV-1IIIB infectivity (HIV-1 IIIB): 6.00 µg/mL (≈ 1.6 µM) | ID90 HIV-1IIIB infectivity (HIV-1 IIIB): 12.5 µg/mL (≈ 3.34 µM)

Recombinant DP178 (peptide)
ID50%, HIV-1IIIB infectivity [6]: 0.05 µg/mL | ID90, HIV-1IIIB infectivity [6]: 0.09 µg/mL | MIC, HIV-1IIIB infectivity [6]: 0.009 µg/mL

T20 (peptide)
IC50, cell fusion assay (MAGI-CCR5 cells with HL2/3 cells expressing HIV-1IIIB Env) [6]: 30 nM

WNASWSNKSLEQIWNNMTWMEWEREIDNYTSLIYSLI [Peptide W37I]
activity compared with the new analogues of T-20, T-21 and DP219 (HIV-1 [3]): broadly similar levels of activity

enfuvirtide
IC50 [7]: ~30 nM
